ChEMBL document CHEMBL3046588, “Design, synthesis, and in vitro evaluation of cytotoxic activity of new substituted 1,4-benzoquinones and hydroquinones” (2007)

tested on: not listed separately; test: Cytotoxicity against Homo sapiens (human) colon cancer cells after 48 hr by SRB assay; type: functional; conditions: Cancer cell lines

| SMILES | GI50 | TGI |
| --- | --- | --- |
| O=C1C=CC(=O)C(c2cc(-c3ccc(Cl)cc3)nn2-c2ccccc2)=C1 | 42.4 µM | 69.7 µM |
| Cc1ccc(-c2cc(C3=CC(=O)C=CC3=O)n(-c3ccc(S(N)(=O)=O)cc3)n2)cc1 | 42.4 µM | 88.8 µM |
| NS(=O)(=O)c1ccc(-n2nc(-c3ccc(Cl)cc3)cc2C2=CC(=O)C=CC2=O)cc1 | 17.6 µM | 37.4 µM |

tested on: not listed separately; test: Cytotoxicity against Homo sapiens (human) leukemia cells after 48 hr by SRB assay; type: functional; conditions: Leukemia cell

| SMILES | GI50 | TGI |
| --- | --- | --- |
| O=C1C=CC(=O)C(c2cc(-c3ccc(Cl)cc3)nn2-c2ccccc2)=C1 | 27.8 µM | 87.1 µM |
| Cc1ccc(-c2cc(C3=CC(=O)C=CC3=O)n(-c3ccc(S(N)(=O)=O)cc3)n2)cc1 | 37.4 µM | 94 µM |
| NS(=O)(=O)c1ccc(-n2nc(-c3ccc(Cl)cc3)cc2C2=CC(=O)C=CC2=O)cc1 | 31.8 µM | 84.6 µM |

tested on: not listed separately; test: Cytotoxicity against Homo sapiens (human) melanoma cellsafter 48 hr by SRB assay; type: functional; conditions: Melanoma cell

| SMILES | GI50 | TGI |
| --- | --- | --- |
| O=C1C=CC(=O)C(c2cc(-c3ccc(Cl)cc3)nn2-c2ccccc2)=C1 | 69.4 µM | 55.4 µM |
| Cc1ccc(-c2cc(C3=CC(=O)C=CC3=O)n(-c3ccc(S(N)(=O)=O)cc3)n2)cc1 | 69.4 µM | 97.3 µM |
| NS(=O)(=O)c1ccc(-n2nc(-c3ccc(Cl)cc3)cc2C2=CC(=O)C=CC2=O)cc1 | 26.7 µM | 52.7 µM |

tested on: MCF7; test: Cytotoxicity against Homo sapiens (human) MCF7 cells assessed as cellular growth after 48 hr by Alamar blue assay; type: functional; set-up: concentration or dose not given beside the values; conditions: not given

| SMILES | Activity |
| --- | --- |
| O=C1C=CC(=O)C(c2cc(-c3ccc(Cl)cc3)nn2-c2ccccc2)=C1 | <32% |
| Cc1ccc(-c2cc(C3=CC(=O)C=CC3=O)n(-c3ccc(S(N)(=O)=O)cc3)n2)cc1 | <32% |
| NS(=O)(=O)c1ccc(-n2nc(-c3ccc(Cl)cc3)cc2C2=CC(=O)C=CC2=O)cc1 | <32% |

tested on: SF-268; test: Cytotoxicity against Homo sapiens (human) SF268 cells assessed as cellular growth after 48 hr by Alamar blue assay; type: functional; set-up: concentration or dose not given beside the values; conditions: not given

| SMILES | Activity |
| --- | --- |
| O=C1C=CC(=O)C(c2cc(-c3ccc(Cl)cc3)nn2-c2ccccc2)=C1 | <32% |
| Cc1ccc(-c2cc(C3=CC(=O)C=CC3=O)n(-c3ccc(S(N)(=O)=O)cc3)n2)cc1 | <32% |
| NS(=O)(=O)c1ccc(-n2nc(-c3ccc(Cl)cc3)cc2C2=CC(=O)C=CC2=O)cc1 | <32% |

tested on: not listed separately; test: Cytotoxicity against Homo sapiens (human) breast cancer cells after 48 hr by SRB assay; type: functional; conditions: Cancer cell lines

| SMILES | GI50 | TGI |
| --- | --- | --- |
| O=C1C=CC(=O)C(c2cc(-c3ccc(Cl)cc3)nn2-c2ccccc2)=C1 | 51.5 µM | 69.3 µM |
| Cc1ccc(-c2cc(C3=CC(=O)C=CC3=O)n(-c3ccc(S(N)(=O)=O)cc3)n2)cc1 | 51.5 µM | 95.5 µM |
| NS(=O)(=O)c1ccc(-n2nc(-c3ccc(Cl)cc3)cc2C2=CC(=O)C=CC2=O)cc1 | 21.9 µM | 62.6 µM |

same assay, conditions: Cancer cell lines, pooled result: one value given for 9 cell lines, strains, targets or settings

| SMILES | LC50 (concentration giving 50% net cell kill) |
| --- | --- |
| O=C1C=CC(=O)C(c2cc(-c3ccc(Cl)cc3)nn2-c2ccccc2)=C1 | 95.6 µM |
| Cc1ccc(-c2cc(C3=CC(=O)C=CC3=O)n(-c3ccc(S(N)(=O)=O)cc3)n2)cc1 | 99.2 µM |
| NS(=O)(=O)c1ccc(-n2nc(-c3ccc(Cl)cc3)cc2C2=CC(=O)C=CC2=O)cc1 | 92.3 µM |

tested on: not listed separately; test: Cytotoxicity against Homo sapiens (human) renal cancer cells after 48 hr by SRB assay; type: functional; conditions: Cancer cell lines

| SMILES | GI50 | TGI |
| --- | --- | --- |
| O=C1C=CC(=O)C(c2cc(-c3ccc(Cl)cc3)nn2-c2ccccc2)=C1 | 55.6 µM | 53.3 µM |
| Cc1ccc(-c2cc(C3=CC(=O)C=CC3=O)n(-c3ccc(S(N)(=O)=O)cc3)n2)cc1 | 55.6 µM | 86.8 µM |
| NS(=O)(=O)c1ccc(-n2nc(-c3ccc(Cl)cc3)cc2C2=CC(=O)C=CC2=O)cc1 | 23.1 µM | 50.2 µM |

tested on: not listed separately; test: Cytotoxicity against Homo sapiens (human) ovarian cancer cells after 48 hr by SRB assay; type: functional; conditions: Cancer cell lines

| SMILES | GI50 | TGI |
| --- | --- | --- |
| O=C1C=CC(=O)C(c2cc(-c3ccc(Cl)cc3)nn2-c2ccccc2)=C1 | 67.3 µM | 81.7 µM |
| Cc1ccc(-c2cc(C3=CC(=O)C=CC3=O)n(-c3ccc(S(N)(=O)=O)cc3)n2)cc1 | 67.4 µM | 100 µM |
| NS(=O)(=O)c1ccc(-n2nc(-c3ccc(Cl)cc3)cc2C2=CC(=O)C=CC2=O)cc1 | 26.5 µM | 65.7 µM |

tested on: not listed separately; test: Cytotoxicity against Homo sapiens (human) non-small cell lung cancer cells after 48 hr by SRB assay; type: functional; conditions: Cancer cell lines

| SMILES | GI50 | TGI |
| --- | --- | --- |
| O=C1C=CC(=O)C(c2cc(-c3ccc(Cl)cc3)nn2-c2ccccc2)=C1 | 53.5 µM | 70.1 µM |
| Cc1ccc(-c2cc(C3=CC(=O)C=CC3=O)n(-c3ccc(S(N)(=O)=O)cc3)n2)cc1 | 53.5 µM | 100 µM |
| NS(=O)(=O)c1ccc(-n2nc(-c3ccc(Cl)cc3)cc2C2=CC(=O)C=CC2=O)cc1 | 23.9 µM | 71.1 µM |

tested on: NCI-H460; test: Cytotoxicity against Homo sapiens (human) NCI-H460 cells assessed as cellular growth after 48 hr by Alamar blue assay; type: functional; set-up: concentration or dose not given beside the values; conditions: not given

| SMILES | Activity |
| --- | --- |
| O=C1C=CC(=O)C(c2cc(-c3ccc(Cl)cc3)nn2-c2ccccc2)=C1 | <32% |
| Cc1ccc(-c2cc(C3=CC(=O)C=CC3=O)n(-c3ccc(S(N)(=O)=O)cc3)n2)cc1 | <32% |
| NS(=O)(=O)c1ccc(-n2nc(-c3ccc(Cl)cc3)cc2C2=CC(=O)C=CC2=O)cc1 | <32% |

tested on: not listed separately; test: Cytotoxicity against Homo sapiens (human) CNS cancer cells after 48 hr by SRB assay; type: functional; conditions: Cancer cell lines

| SMILES | GI50 | TGI |
| --- | --- | --- |
| O=C1C=CC(=O)C(c2cc(-c3ccc(Cl)cc3)nn2-c2ccccc2)=C1 | 65.3 µM | 55.8 µM |
| Cc1ccc(-c2cc(C3=CC(=O)C=CC3=O)n(-c3ccc(S(N)(=O)=O)cc3)n2)cc1 | 65.3 µM | 100 µM |
| NS(=O)(=O)c1ccc(-n2nc(-c3ccc(Cl)cc3)cc2C2=CC(=O)C=CC2=O)cc1 | 23.7 µM | 53 µM |

tested on: not listed separately; test: Cytotoxicity against Homo sapiens (human) prostate cancer cells after 48 hr by SRB assay; type: functional; conditions: Cancer cell lines

| SMILES | GI50 | TGI |
| --- | --- | --- |
| O=C1C=CC(=O)C(c2cc(-c3ccc(Cl)cc3)nn2-c2ccccc2)=C1 | 36.5 µM | 66.3 µM |
| Cc1ccc(-c2cc(C3=CC(=O)C=CC3=O)n(-c3ccc(S(N)(=O)=O)cc3)n2)cc1 | 36.5 µM | 100 µM |
| NS(=O)(=O)c1ccc(-n2nc(-c3ccc(Cl)cc3)cc2C2=CC(=O)C=CC2=O)cc1 | 21.6 µM | 71.9 µM |
